Measurements published in patent US9132138B2, “Method for the treatment of multiple sclerosis” (CASI Pharmaceuticals, Inc., priority 2012, dated 2015).

Target: T1, GPER1 (Mus musculus, UniProt Q8BMP4)
T1 construct: Purified C57/BL6 CD4^+ T cells were preincubated with the GPER1 antagonist G15; endogenous in cells; host or cells: purified primary CD4+ T cells from C57/BL6 mice
T1 sequence (Q8BMP4 1-375): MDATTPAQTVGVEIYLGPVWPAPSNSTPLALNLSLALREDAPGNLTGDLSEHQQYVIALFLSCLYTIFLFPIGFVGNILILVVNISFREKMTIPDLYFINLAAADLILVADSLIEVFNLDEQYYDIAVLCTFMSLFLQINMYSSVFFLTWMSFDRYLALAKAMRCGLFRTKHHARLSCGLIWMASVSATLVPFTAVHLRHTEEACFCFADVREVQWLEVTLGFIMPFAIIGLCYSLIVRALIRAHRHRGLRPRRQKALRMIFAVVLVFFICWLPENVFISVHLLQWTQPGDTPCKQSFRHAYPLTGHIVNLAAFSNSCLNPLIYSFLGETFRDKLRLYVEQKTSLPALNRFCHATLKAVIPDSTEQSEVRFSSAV
Experiment: GPER1 dependence: CD25/CD69 on CD4+ T cells with G15 or G1
Type: cell-based, C57/BL6 mice
Details: for cell viability: at 6 hours
Method: FIGS. 6A and 6B show purified CD4^+ T cells that were pretreated with 2-50 μM 2ME2 and/or the GPER1 antagonist G15, and subsequently stimulated with anti-CD3/28 for 6 hours. Activation of CD4^+ T cells was assessed by CD25 and CD69 upregulation, measured by flow cytometry. US, unstimulated. Data is shown as mean±SD for triplicate determinations, and is representative of two separate experiments.
Purified C57/BL6 CD4^+ T cells were preincubated with the GPER1 antagonist G15 (100 nM, Tocris) and 2ME2 (0-50 μM), or the GPER1 agonist G1 (1-100 nM, Tocris) for 30 minutes, and activated with plate bound anti-CD3 plus soluble anti-CD28. 6 hours later, cells were harvested, stained with anti-CD4 and anti-CD25. CD25 expression was monitored on a HTS FACSCanto II (BD) and analyzed with FloJo (Treestar Inc).

[1] = G15 100 nM with 2ME2, anti-CD3/28, 6 hours

CD25 expression on activated T cells (G1 1-100 nM, 6 hours) | CD69 expression on activated T cells (G1 1-100 nM, 6 hours) | reversal of the inhibitory effect of 2ME2 on CD25 expression [1] | reversal of the inhibitory effect of 2ME2 on CD69 expression [1] | SMILES | cell viability
no effect | no effect | – | – | CC(=O)c1ccc2c(c1)C1C=CCC1C(c1cc3c(cc1Br)OCO3)N2 (stereo not drawn) [G1] | Neither 2ME2, G1 nor G15 affected cell viability
– | – | failed to reverse | failed to reverse | Brc1cc2c(cc1[C@@H]1Nc3ccccc3[C@@H]3C=CC[C@@H]31)OCO2 [G15] | Neither 2ME2, G1 nor G15 affected cell viability
